Consider seven molecules from patent US11787781B2, “Inhibiting ataxia telangiectasia and RAD3-related protein (ATR)” (Celator Pharmaceuticals, Inc., priority 2016, dated 2023).

In one data set the target is ATR/ATRIP(h) (Homo sapiens (Human), UniProt Q13535). Put plainly: Eurofins ATR/ATRIP HTRF assay, p53 Ser15 phosphorylation. The class given is biochemical. On the set-up: key to Top / Bottom: % of DMSO positive control activity. The conditions noted are these: ATP 10 μM; for Hill: four parameter logistic fit; for Bottom / Top: four parameter logistic fit of % control activity. The method, then:
An EC50 determination was conducted for the supplied set of compounds against the kinase ATR/ATRIP(h), using a linear enzyme concentration in the Eurofins ATR/ATRIP HTRF assay using GST tagged full length p53 as the substrate.
ATR/ATRIP phosphorylation of p53 on Ser15 was measured via formation of an energy transfer complex consisting of a Europium-labelled anti-phospho Ser15 p53 antibody and an anti-GST-d2 antibody. All data points were performed in duplicate with DMSO controls and EDTA blanks.
ATR/ATRIP(h) was pre-diluted in 25 mM HEPES pH 8.0, 0.01% Brij-35, 1% Glycerol, 5 mM DTT, 1 mg/mL BSA and assayed in 25 mM HEPES pH 8.0, 0.01% Brij-35, 1% Glycerol, 10 mM MnCl2 using 30 nM GST, cMyc p53-(hu,FL) as the substrate. The reaction was initiated with the addition of ATP to a final concentration of 10 μM.
The individual replicates were expressed in terms of the % of the DMSO positive control activity. The mean activity (% control) of each inhibitor concentration was plotted against the inhibitor concentration, and EC50 values were determined using […] PRISM.
The data expressed as % control activity were plotted against inhibitor concentration, and fitted to a four parameter logistic using […] PRISM. Graphs for each compound are shown alongside the data in the accompanying Excel report.

Another data set in a line: pKa. The conditions noted are these: method not stated. The class given is physicochemical.
The nature of data set [1]: Loading of ATR inhibitors into TEA-SOS liposomes and liposome characterization. The class given is physicochemical. Particulars: for Loading efficiency (%) / Drug/lipid ratio after loading: TEA-SOS liposomes; for Loading efficiency (%): Compound 1 at ratio before loading 379; for Drug/lipid ratio after loading: input ratio before loading (Compound 1: 379); for Liposome size, (mean ± SD) nm: liposomes loaded with the ATR inhibitor. Here is the method: Sodium sucrose octasulfate (equivalent weight 144.8) is a sodium salt of sucrose derivate in which all hydroxyl groups have formed sulfuric acid esters. Sixty gram of sucrose octasulfate (SOS) sodium salt were dissolved in 150 ml of di water, heated with shaking (swirling) of a 50° C. water bath. The solution was passed through a column packed with sulfonated polystyrene divinylbenzene copolymer cation exchange resin beads (Dowex 50Wx8-100-200 mesh, Dow Chemical Co.). […] The eluent was monitored using a conductivity detector. The SOS fraction was collected corresponding to conductivity peak and immediately titrated with neat triethylamine (TEA) solution to pH 6-6.5. The solution was analyzed for residual sodium by potentiometry using a sodium-sensitive electrode and for SOS concentration using a refractometer. The solution having residual sodium less than 0.25% was diluted with di water to final SOS concentration 1.1 M and then sterile-filtered using Millipore 0.22 μm Steri-Top filter.
Cholesterol (Chol) was purchased from Avanti Polar Lipids, Alabaster, Ala., USA, hydrogenated soy phosphocholine (HSPC) and methoxy-poly(ethylene glycol)-1,2-distearoyl-sn-glyceryl (PEG2000-DSG) were obtained from Lipoid GmbH, Ludwigshafen, Germany.
Chol, HSPC and PEG2000-DSG were co-dissolved in 100% ethanol (200-proof, Sigma cat #: 459828) at a molar ratio of 3:2:0.15 at 65° C. The solution of TEA-SOS (10 times the volume of added ethanol) was mixed with the lipid solution at 60-65° C. and stirred at this temperature until a homogeneous milky suspension of multilamellar vesicles was formed. This suspension was extruded 3 times through 5 stacked polycarbonate track-etched filters (Corning Nuclepore) with the pore size of 100 nm using argon pressure extruder (Lipex Biomembranes) at 60-65° C., and resulting unilamellar liposomes were quickly chilled in ice and then stored at 4-6° C. before use. Concentration of phospholipids was measured by phosphate assay and particle diameter was recorded on a Malvern Nanosizer.
Prior to drug loading, the TEA-SOS gradient was created by removing excess of un-trapped TEA-SOS using gel-chromatography (Sepharose CL-4B, Pharmacia). Osmolarity of liposomes was balanced using 50% dextrose solution. Final dextrose concentration was 15%.
ATR inhibitors were dissolved in 15% dextrose solutions in di water by titration with 1 M HCl and heating at 45° C. and then filtered with 0.2 micron NALGENE 13 mm Syringe Filters. Drug concentration in the solution was detected by HPLC. […]
The liposome-drug mixture was incubated with occasional agitation for 30 minutes at 65° C. The incubation mixture was quickly cooled down and incubated for 10 minutes at 0° C., then allowed to attain ambient temperature. Un-encapsulated drug was removed by gel chromatography on Sephadex G-25 (Amersham Pharmacia) eluted with HBS-6.5 buffer (5 mM 2-(4-(2-hydroxyethyl)-piperazino)-ethylsulfonic acid (HEPES), 144 mM NaCl, pH 6.5). Liposome fractions eluted in the void volume were combined, sterilized by 0.2 micron filtration, and stored at 4-6° C. before use. The liposomes were characterized by lipid concentration, drug concentration, and particle size (Table 2).

A further data set deals with ATM(h) (Homo sapiens (Human), UniProt Q13315). Put plainly: ATM activity, […] KINASEPROFILER
The conditions noted are these: estimated IC50. The format is biochemical. The text has this: Estimated IC50 values are as follows (obtained using […] KINASEPROFILER): […]

The test system of data set [2] is total and phospho-ATR (S428), phospho-CHK1 (S317 and S345) in DMS-114 cells. Put plainly: Western blot of total and phospho-ATR, phospho-CHK1 in DMS-114 cells. The class given is cell-based. Here is the method:
Whole cell protein lysates were generated after 1, 3, 6 and 24 hours using a 2% SDS containing cell lysis buffer and stored at −80° C. until all samples were collected and run together at the same time for the WesternBlot analysis. The following proteins and phosphoproteins of interest were detected by antibodies purchased from Cell Signaling Technology (see methods and materials part below): total and phospho-ATR (S428), phospho-CHK1 (S317 and S345), γH2AX, beta-actin.
All target and phospho-specific antibodies were purchased from Cell Signaling and/or Epitomics and were used at 1:1000 dilutions. A list of all antibodies is available in Table 6. Standard antibody based Western blot and immunohistochemistry protocols were used. Briefly, 2% SDS based cell lysis buffer was used to collect whole cell lysate for Western Blotting. Secondary antibodies and staining protocols were purchased and followed regarding LiCor Biosciences and/or BD Bioscience.
Cells were grown and treated in a 6 cm dish scale. To harvest cells, medium was removed and quickly replaced by ice cold PBS. PBS was then replaced with 250 μL of 2% SDS lysis buffer. After five minutes of incubation, the lysed cells were scraped off and loaded onto a cell lysate homogenizer microcentrifuge spin-column (QIAshredder, Qiagen, Cat.-Nr. 79656). The filtrate was then loaded onto a 0.2 μm centrifugal filter column (Nanosep MF 0.2_m, Pall, Cat.-Nr. ODM02C34). The lysates were then stored at −80° C.
A general note: In western blotting, separated proteins are transferred to a membrane and probed.

For another data set, the system named is SUM149 cells. The data set is described as follows: Cell cycle stage profile, SUM149 cells. The format is cell-based. The conditions noted are these: 24 hours after addition of SN38 and ATR inhibitor.
The next data set relates to U2OS cells. The data set is described as follows: Cell death and growth assay, U2OS cells. The class given is cell-based. The method, then: U20S and all other cells were grown in (RPMI) supplemented with 10% fetal bovine serum (FBS) and antibiotics. Imaging and time-lapse compatible NucLight red cell lines were generated as recommend by Essen Bioscience Inc. using lentiviral particles, infection and puromycin selection protocols.
The results were compared back to a prediction of cell growth and death with the combination of the two compounds (FIG. 18A).
In all cases, relative cell proliferation is reduced with the combinations compared to the drugs alone (FIG. 21B-C).

For a further data set, the system named is NCI-H596 cells. Put plainly: Cell number over time, NCI-H596 cells. The conditions noted are these: 1 μM in combination with SN38 0.2 μM. The format is cell-based.
Another data set concerns MS-751 cells. The data set is described as follows: In vitro growth assay, MS-751 cells. The format is cell-based. Particulars: in combination with SN38.
The next data set relates to NCI-H520 cells. Put plainly: Cell number over time, NCI-H520 cells. The conditions noted are these: 1 μM in combination with SN38 0.2 μM. The class given is cell-based.

Some results are limits rather than exact numbers.

ATM(h), sequence (Q13315 whole entry): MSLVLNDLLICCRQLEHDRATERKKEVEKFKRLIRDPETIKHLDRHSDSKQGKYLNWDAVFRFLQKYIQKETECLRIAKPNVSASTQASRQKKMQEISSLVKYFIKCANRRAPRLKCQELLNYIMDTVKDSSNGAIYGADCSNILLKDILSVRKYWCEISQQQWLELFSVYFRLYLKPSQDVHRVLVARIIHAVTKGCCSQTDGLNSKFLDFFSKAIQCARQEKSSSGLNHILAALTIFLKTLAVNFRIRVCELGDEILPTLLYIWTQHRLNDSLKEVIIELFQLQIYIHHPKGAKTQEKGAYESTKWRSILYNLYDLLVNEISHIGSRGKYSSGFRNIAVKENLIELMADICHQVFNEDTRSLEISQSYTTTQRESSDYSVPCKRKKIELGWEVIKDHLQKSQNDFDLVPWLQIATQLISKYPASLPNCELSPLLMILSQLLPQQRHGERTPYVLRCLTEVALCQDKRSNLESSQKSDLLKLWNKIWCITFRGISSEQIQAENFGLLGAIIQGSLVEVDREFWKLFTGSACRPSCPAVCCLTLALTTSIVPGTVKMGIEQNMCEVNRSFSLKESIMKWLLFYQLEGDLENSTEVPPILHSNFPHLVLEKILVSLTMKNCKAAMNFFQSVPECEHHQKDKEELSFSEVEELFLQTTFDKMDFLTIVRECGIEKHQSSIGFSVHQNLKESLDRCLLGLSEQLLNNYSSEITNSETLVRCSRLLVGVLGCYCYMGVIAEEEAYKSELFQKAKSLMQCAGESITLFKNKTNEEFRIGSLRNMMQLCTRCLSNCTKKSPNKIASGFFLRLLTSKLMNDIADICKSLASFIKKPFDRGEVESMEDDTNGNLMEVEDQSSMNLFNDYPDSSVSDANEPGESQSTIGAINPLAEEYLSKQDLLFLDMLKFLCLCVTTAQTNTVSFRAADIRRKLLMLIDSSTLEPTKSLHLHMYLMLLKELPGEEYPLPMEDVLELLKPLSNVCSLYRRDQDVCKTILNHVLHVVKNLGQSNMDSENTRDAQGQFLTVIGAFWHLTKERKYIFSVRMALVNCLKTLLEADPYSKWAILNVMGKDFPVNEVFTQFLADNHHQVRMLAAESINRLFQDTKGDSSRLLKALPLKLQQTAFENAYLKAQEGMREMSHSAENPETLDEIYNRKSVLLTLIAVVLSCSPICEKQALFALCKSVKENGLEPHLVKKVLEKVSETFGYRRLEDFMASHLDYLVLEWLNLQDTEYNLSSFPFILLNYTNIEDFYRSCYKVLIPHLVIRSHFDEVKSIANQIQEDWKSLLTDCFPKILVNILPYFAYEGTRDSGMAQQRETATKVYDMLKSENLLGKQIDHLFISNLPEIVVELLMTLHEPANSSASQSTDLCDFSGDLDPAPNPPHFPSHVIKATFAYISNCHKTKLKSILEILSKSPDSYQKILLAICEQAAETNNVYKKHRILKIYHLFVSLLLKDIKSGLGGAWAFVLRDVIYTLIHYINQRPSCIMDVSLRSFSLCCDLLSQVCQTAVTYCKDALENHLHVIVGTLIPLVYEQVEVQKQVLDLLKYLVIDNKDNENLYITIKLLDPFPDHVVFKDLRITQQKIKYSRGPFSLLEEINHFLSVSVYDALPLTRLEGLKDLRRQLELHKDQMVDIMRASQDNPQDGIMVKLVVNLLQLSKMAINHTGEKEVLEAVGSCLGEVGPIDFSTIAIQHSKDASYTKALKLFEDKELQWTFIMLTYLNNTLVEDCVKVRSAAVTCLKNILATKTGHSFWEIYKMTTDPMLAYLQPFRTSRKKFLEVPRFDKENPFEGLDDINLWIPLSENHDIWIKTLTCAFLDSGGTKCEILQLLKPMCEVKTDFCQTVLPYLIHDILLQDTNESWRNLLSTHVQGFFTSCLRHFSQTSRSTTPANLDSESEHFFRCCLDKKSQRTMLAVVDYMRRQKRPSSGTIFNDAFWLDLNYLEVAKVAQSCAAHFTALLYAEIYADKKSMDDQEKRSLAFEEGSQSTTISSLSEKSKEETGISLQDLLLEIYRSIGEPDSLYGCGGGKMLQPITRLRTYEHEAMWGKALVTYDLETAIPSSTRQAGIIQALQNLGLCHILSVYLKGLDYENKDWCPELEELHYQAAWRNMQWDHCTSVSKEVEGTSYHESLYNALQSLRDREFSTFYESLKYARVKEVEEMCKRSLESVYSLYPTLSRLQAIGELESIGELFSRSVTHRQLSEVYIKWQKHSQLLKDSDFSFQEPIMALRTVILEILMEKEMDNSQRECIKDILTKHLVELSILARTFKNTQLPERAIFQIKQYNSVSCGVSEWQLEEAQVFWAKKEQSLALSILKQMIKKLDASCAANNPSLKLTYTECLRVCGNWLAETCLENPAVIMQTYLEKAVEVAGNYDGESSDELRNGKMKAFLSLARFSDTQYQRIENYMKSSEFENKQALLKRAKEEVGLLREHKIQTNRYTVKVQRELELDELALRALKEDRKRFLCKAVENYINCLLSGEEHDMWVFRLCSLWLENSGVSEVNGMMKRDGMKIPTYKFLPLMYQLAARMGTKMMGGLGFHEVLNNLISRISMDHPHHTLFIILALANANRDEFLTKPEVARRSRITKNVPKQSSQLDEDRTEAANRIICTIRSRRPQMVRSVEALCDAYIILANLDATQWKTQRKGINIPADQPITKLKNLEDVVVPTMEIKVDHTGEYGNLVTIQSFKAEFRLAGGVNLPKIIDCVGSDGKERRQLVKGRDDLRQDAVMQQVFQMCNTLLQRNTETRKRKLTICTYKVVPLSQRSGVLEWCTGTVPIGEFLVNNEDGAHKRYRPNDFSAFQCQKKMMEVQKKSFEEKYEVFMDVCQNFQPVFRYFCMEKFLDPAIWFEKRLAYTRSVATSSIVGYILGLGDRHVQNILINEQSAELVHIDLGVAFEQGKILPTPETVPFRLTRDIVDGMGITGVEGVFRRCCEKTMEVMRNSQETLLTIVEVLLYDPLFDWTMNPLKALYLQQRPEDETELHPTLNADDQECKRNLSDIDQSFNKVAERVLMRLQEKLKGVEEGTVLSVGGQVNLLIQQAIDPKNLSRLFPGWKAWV

Consider `CCN(CC)CCS(=O)(=O)c1ccc(-c2cnc(N)c(C(=O)Nc3ccccc3)n2)cc1` [Compound 2, 3-amino-6-(4-((2-(diethylamino)ethyl)sulfonyl)phenyl)-N phenylpyrazine-2-carboxamide], for which, on ATR/ATRIP(h), the EC50 – broadly, the midpoint of the concentration-response curve – amounted to 0.14 µM; the Hill was −0.911; the Bottom is 1; the Top amounted to 94. Moreover, in the data set “pKa”, the pKa – broadly, the negative logarithm of the acid dissociation constant – is 7.46. In addition, in data set [1], the “Loading efficiency (%)” value is 100 ± 5%; the “Drug/lipid ratio after loading” value is listed as 639 ± 22; the “Liposome size, (mean ± SD) nm” value is listed as 130 ± 34 nm. Further, the IC50 (commonly the point on the concentration scale where inhibition reaches its midpoint) on ATM(h) was 4.82 µM.
Take `CCN(CC)C1CCN(CCS(=O)(=O)c2ccc(-c3cnc(N)c(C(=O)Nc4ccccc4)n3)cc2)CC1` [Compound 6, 3-amino-6-(4-((2-(4-(diethylamino)piperidin-1 yl)ethyl)sulfonyl)phenyl)-N-phenylpyrazine-2-carboxamide]: at ATR/ATRIP(h), a half-maximal effect (EC50) was put at 0.471 µM, the Hill is reported as −0.768, the Bottom was −2 and the Top was 101. In addition, in the data set “pKa”, the pKa turned out to be 9.81. In data set [1], the “Loading efficiency (%)” value stood at 74 ± 0.3%; the “Drug/lipid ratio after loading” value turned out to be 550 ± 64; the “Liposome size, (mean ± SD) nm” value is 119 ± 28 nm. Also, the IC50 on ATM(h) was > 10 µM.
With `Nc1ccn([C@@H]2O[C@H](CO)[C@@H](O)C2(F)F)c(=O)n1` [Gemcitabine], the “phospho-CHK1 (S317 and S345) signaling” value in data set [2] (Gemcitabine 16 nM alone, over 24 hrs) was “significantly increased”.
For `CN1CCN(CCS(=O)(=O)c2ccc(-c3cnc(N)c(C(=O)Nc4ccccc4)n3)cc2)CC1` [Compound 3, 3-amino-6-(4-((2-(4-methylpiperazin-1-yl)ethyl)sulfonyl)phenyl)-N-phenylpyrazine-2-carboxamide], at ATR/ATRIP(h), the response was half-maximal at 0.196 µM (EC50), the Hill is given as −0.776, the Bottom is recorded as −3 and the Top is recorded as 98. Also, the pKa in the data set “pKa” came out at 7.73. Besides, in [1], the “Loading efficiency (%)” value is given as 97 ± 5%; the “Drug/lipid ratio after loading” value came out at 628 ± 6; the “Liposome size, (mean ± SD) nm” value was 120 ± 27 nm. For the same molecule, the IC50 at ATM(h) was > 10 µM.
For the molecule `CC(CN(C)C)S(=O)(=O)c1ccc(-c2cnc(N)c(C(=O)Nc3ccccc3)n2)cc1` (stereo not shown) [Compound 1, 3-amino-6-(4-((1-(dimethylamino)propan-2-yl)sulfonyl)phenyl)-N-phenylpyrazine-2-carboxamide], on ATR/ATRIP(h), a half-maximal response (EC50) required 0.0496 µM, the Hill was −0.772, the Bottom is listed as −1 and the Top is listed as 95. In addition, the pKa in the data set “pKa” amounted to 7.04. The loading efficacy entry in data set [1] (Compound 1: at drug to lipid ratio higher than 400 g/mol) is recorded as “formed aggregates”. Also, in [1], the “Loading efficiency (%)” value is on record as 98%; the “Drug/lipid ratio after loading” value was found to be 369; the “Liposome size, (mean ± SD) nm” value came to 122 ± 24 nm. Besides, the “Drug/lipid ratio after loading (loadability)” value in data set [1] (drug/lipid ratio before loading 600-800) is given as “Not loadable. Formed aggregates”. Besides, on ATM(h), the IC50 was 3.86 µM.
As to `CNCc1ccc(-c2cc(-c3nc(-c4ccc(S(=O)(=O)C(C)C)cc4)cnc3N)on2)cc1` [Compound A], in the data set with SUM149 cells, the “cell cycle stage profile vs controls” value is reported as “larger percentage of cells are arrested in G2 phase”. Further, the “cell numbers over time vs either agent in isolation” value in the data set on U2OS cells (1 μM in combination with SN38 0.2 μM), with NCI-H596 cells and in the data set on NCI-H520 cells was “more effective at maintaining or reducing cell numbers over time” in each case. Further, the “cell death vs either compound alone” value in the data set with U2OS cells (Compound A (1 μM) combined with Gemcitabine (0.04 μM)) was “better at promoting cell death”. Besides, the “Liposome size, (mean ± SD) nm” value in data set [1] was 121 ± 26 nm. At ATM(h), the IC50 was 0.042 µM. In addition, in the data set on MS-751 cells, the “cell number over time vs either compound alone” value is given as “reduction in cell number over time”. Moreover, the “phosphorylation signal of CHK1 (S317 and S345) induced by Gemcitabine” value in [2] (ATR inhibitor 1 μM added to Gemcitabine 16 nM) is “abrogates the phosphorylation signal of CHK1”. Also, the “total and phospho-ATR signal” value in data set [2] (ATR inhibitor 1 μM, alone or with Gemcitabine 16 nM, up to 24 hrs) is “strongly reduced”.
Molecule `CN(C)CCNS(=O)(=O)c1ccc(-c2cnc(N)c(C(=O)Nc3ccccc3)n2)cc1` [Compound 4, 3-amino-6-(4-(((2-(dimethylamino)ethyl)-λ^2-azanyl)sulfonyl)phenyl)-N-phenylpyrazine-2-carboxamide] displayed an EC50 on ATR/ATRIP(h) of 0.353 µM. Moreover, the pKa in the data set “pKa” was 8.36. Besides, the IC50 at ATM(h) is 6.87 µM.
